Assays:
Assay type in all cases: cell-based
human TLR9 = biological target: T1, human TLR9 (Homo sapiens, UniProt Q9NR96); experiment: TLR9 inhibition reporter assay (HEK-Blue cells, SEAP reporter, ODN2006 stimulation); conditions: HEK-Blue cells overexpressing human TLR9, SEAP reporter, ODN2006 5 nM
T1 construct: host or cells: HEK-Blue cells (HEK293-derived reporter line)
T1 sequence (Q9NR96 26-1032): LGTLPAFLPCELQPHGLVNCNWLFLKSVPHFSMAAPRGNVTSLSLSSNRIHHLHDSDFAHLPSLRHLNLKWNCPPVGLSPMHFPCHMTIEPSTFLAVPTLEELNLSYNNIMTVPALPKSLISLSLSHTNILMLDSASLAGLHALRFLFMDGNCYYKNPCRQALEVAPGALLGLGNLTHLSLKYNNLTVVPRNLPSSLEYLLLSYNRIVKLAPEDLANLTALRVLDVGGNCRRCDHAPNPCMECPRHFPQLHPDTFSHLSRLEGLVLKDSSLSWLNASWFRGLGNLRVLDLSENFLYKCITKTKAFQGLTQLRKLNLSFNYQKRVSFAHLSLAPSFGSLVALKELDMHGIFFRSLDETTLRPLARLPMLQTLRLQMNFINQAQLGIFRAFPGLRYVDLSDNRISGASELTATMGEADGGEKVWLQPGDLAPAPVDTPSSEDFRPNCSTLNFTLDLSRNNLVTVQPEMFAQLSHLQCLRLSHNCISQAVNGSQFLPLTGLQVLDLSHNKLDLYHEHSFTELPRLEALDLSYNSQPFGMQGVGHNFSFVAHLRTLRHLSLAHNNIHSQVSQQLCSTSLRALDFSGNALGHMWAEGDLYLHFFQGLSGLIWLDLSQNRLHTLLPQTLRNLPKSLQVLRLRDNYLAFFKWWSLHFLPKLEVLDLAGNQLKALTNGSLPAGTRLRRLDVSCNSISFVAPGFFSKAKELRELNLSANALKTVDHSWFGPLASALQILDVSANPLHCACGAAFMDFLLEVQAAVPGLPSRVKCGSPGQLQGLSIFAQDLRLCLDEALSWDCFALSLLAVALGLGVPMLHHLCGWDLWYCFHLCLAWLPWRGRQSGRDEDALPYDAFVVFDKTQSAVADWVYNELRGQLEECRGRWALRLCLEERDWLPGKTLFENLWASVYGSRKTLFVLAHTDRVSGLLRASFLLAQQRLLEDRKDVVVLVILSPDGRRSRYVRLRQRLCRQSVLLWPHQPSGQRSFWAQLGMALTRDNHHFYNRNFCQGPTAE
Procedure: (§1) TLR7/8/9 Inhibition Reporter Assays
(§2) HEK-Blue™-cells (Invivogen) overexpressing human TLR7, TLR8 or TLR9 receptors were used for screening inhibitors of these receptors using an inducible SEAP (secreted embryonic alkaline phosphatase) reporter gene under the control of the IFN-β minimal promoter fused to five NF-κB and AP-1-binding sites. Briefly, cells are seeded into Greiner 384 well plates (15000 cells per well for TLR7, 20,000 for TLR8 and 25,000 for TLR9) and then treated with test compounds in DMSO to yield a final dose response concentration range of 0.05 nM-50 μM. After a 30 minute compound pre-treatment at room temperature, the cells are then stimulated with a TLR7 ligand (gardiquimod at a final concentration of 7.5 μM), TLR8 ligand (R848 at a final concentration of 15.9 μM) or TLR9 ligand (ODN2006 at a final concentration of 5 nM) to activate NF-κB and AP-1 which induce the production of SLAP After a 22 hour incubation at […], SLAP levels are determined with the addition of HLK-Blue™ Detection reagent (Invivogen), a cell culture medium that allows for detection of SLAP, according to manufacturer's specifications. The percent inhibition is determined as the […] in the HEK-Blue signal present in wells treated with agonist plus DMSO alone compared to wells treated with a known inhibitor.

human TLR7 = biological target: T2, human TLR7 (Homo sapiens, UniProt Q9NYK1); experiment: TLR7 inhibition reporter assay (HEK-Blue cells, SEAP reporter, gardiquimod stimulation); conditions: HEK-Blue cells overexpressing human TLR7, SEAP reporter, gardiquimod 7.5 μM
T2 construct: host or cells: HEK-Blue cells (HEK293-derived reporter line)
T2 sequence (Q9NYK1 27-1049): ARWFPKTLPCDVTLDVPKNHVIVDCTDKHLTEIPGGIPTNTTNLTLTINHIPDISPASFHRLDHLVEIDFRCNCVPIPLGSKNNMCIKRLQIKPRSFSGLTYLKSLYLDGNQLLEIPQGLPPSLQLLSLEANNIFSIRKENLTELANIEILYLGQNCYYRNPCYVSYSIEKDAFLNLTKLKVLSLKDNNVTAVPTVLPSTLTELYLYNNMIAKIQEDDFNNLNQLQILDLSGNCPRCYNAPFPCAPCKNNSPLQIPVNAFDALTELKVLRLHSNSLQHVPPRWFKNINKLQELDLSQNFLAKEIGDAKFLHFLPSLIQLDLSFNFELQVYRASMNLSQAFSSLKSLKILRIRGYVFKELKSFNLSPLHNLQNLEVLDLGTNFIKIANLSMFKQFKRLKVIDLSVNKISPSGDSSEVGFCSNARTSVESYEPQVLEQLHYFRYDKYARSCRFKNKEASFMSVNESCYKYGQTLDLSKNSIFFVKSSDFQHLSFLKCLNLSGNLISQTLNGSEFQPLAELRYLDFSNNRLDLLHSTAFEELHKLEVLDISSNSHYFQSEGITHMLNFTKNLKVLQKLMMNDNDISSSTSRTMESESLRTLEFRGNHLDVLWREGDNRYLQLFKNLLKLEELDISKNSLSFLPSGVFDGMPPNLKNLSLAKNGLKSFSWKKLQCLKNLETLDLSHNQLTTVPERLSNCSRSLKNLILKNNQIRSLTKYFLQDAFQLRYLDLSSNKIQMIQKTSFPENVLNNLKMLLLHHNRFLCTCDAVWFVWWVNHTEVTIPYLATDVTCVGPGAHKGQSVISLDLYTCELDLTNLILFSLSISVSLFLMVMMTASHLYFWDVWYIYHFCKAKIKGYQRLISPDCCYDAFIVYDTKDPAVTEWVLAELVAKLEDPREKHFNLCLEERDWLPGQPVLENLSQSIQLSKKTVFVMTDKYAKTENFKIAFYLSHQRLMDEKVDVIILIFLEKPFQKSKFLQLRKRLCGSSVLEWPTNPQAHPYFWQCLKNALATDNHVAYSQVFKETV
Procedure: as §1, §2

human TLR8 = biological target: T3, human TLR8 (Homo sapiens, UniProt Q9NR97); experiment: TLR8 inhibition reporter assay (HEK-Blue cells, SEAP reporter, R848 stimulation); conditions: HEK-Blue cells overexpressing human TLR8, SEAP reporter, R848 15.9 μM
T3 construct: host or cells: HEK-Blue cells (HEK293-derived reporter line)
T3 sequence (Q9NR97 27-1041): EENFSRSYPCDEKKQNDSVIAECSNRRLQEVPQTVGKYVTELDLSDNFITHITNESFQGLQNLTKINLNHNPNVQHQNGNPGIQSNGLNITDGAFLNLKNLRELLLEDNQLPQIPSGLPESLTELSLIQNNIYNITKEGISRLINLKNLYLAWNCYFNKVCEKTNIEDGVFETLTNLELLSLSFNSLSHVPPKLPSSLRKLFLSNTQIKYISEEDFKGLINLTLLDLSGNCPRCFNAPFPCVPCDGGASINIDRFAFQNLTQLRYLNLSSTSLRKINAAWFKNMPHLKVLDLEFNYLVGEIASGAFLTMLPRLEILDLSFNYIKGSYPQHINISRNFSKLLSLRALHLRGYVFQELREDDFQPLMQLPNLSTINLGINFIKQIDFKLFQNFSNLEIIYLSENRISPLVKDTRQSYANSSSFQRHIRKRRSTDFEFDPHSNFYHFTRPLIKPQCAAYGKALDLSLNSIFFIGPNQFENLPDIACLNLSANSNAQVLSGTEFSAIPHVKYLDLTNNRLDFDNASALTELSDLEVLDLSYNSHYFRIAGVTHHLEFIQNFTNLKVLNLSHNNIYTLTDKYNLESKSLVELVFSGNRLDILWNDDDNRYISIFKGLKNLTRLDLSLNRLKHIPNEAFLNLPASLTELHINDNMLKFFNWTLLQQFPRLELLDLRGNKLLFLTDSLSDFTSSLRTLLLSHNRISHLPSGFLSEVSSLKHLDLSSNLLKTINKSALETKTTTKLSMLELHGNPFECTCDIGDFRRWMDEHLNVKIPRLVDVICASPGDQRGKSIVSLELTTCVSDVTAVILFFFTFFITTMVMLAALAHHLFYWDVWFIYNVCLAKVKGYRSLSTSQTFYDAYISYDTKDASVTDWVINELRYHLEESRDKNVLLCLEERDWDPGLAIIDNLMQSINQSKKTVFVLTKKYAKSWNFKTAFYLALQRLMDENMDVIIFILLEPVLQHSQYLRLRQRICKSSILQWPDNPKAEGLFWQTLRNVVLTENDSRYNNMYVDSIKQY
Procedure: as §1, §2

| IC50 (human TLR9) | IC50 (human TLR7) | IC50 (human TLR8) | SMILES |
| --- | --- | --- | --- |
| 100 to 1000 nM | 1000 to 50000 nM | 1000 to 50000 nM | CC(C)c1c(-c2cnc3cnccn23)[nH]c2ccc(C3CCNCC3)cc12 [Example 194, 3-(3-isopropyl-5-(piperidin-4-yl)-1H-indol-2-yl)imidazo[1,2-a]pyrazine] |
| 1000 to 50000 nM | < 100 nM | < 100 nM | Cc1ccnc2c1c(-c1[nH]c3ccc(C4CCNCC4)cc3c1C(C)C)cn2C [Example 35, 3-(3-isopropyl-5-(piperidin-4-yl)-1H-indol-2-yl)-1,4-dimethyl-1H-pyrrolo[2,3-b]pyridine] |
| 1000 to 50000 nM | 1000 to 50000 nM | 1000 to 50000 nM | Cc1cc(-c2[nH]c3ccc(C4CCN(C(=O)[C@@H]5C[C@@H](O)CN5)CC4)cc3c2C(C)C)cc2nccn12 [Example 539, ((2S,4R)-4-hydroxypyrrolidin-2-yl)(4-(3-isopropyl-2-(5-methylimidazo[1,2-a]pyridin-7-yl)-1H-indol-5-yl)piperidin-1-yl)methanone] |
| 1000 to 50000 nM | < 100 nM | 100 to 1000 nM | Cc1cc(-c2[nH]c3ccc(C4CCN(C5CCS(=O)(=O)CC5)CC4)cc3c2C(C)C)cc2cccnc12 [Example 800, 4-(4-(3-isopropyl-2-(8-methylquinolin-6-yl)-1H-indol-5-yl)piperidin-1-yl)tetrahydro-2H-thiopyran 1,1-dioxide] |

Second part, the compound before the results:

| SMILES | IC50 (human TLR9) | IC50 (human TLR7) | IC50 (human TLR8) |
| --- | --- | --- | --- |
| CC(C)c1c(-c2ccnc3[nH]ncc23)[nH]c2ccc(C3CCN(C(=O)Cc4c[nH]cn4)CC3)cc12 [Example 612, 2-(1H-imidazol-4-yl)-1-(4-(3-isopropyl-2-(1H-pyrazolo[3,4-b]pyridin-4-yl)-1H-indol-5-yl)piperidin-1-yl)ethan-1-one] | 1000 to 50000 nM | < 100 nM | < 100 nM |
| Cc1cc2ncccc2cc1-c1[nH]c2ccc(C3CCNCC3)cc2c1C(C)C [Example 140, 6-(3-isopropyl-5-(piperidin-4-yl)-1H-indol-2-yl)-7-methylquinoline] | 1000 to 50000 nM | < 100 nM | 100 to 1000 nM |
| Cc1cc(-c2[nH]c3ccc(C4CCN(C(=O)CN(C)C)CC4)cc3c2C(C)C)cn2ccnc12 [Example 528, 2-(dimethylamino)-1-(4-(3-isopropyl-2-(8-methylimidazo[1,2-a]pyridin-6-yl)-1H-indol-5-yl)piperidin-1-yl)ethan-1-one] | 100 to 1000 nM | < 100 nM | < 100 nM |
| Cc1c(-c2[nH]c3ccc(C4CCN(C(=O)CN(C)C)CC4)cc3c2C(C)C)cn2nnnc2c1C [Example 468, 2-(dimethylamino)-1-(4-(2-(7,8-dimethyltetrazolo[1,5-a]pyridin-6-yl)-3-isopropyl-1H-indol-5-yl)piperidin-1-yl)ethan-1-one] | 1000 to 50000 nM | < 100 nM | < 100 nM |
| CC(=O)N1CCC(N2CCC(c3ccc4[nH]c(-c5ccnc6[nH]ncc56)c(C(C)C)c4c3)CC2)CC1 [Example 823, 1-(4-(3-isopropyl-2-(1H-pyrazolo[3,4-b]pyridin-4-yl)-1H-indol-5-yl)-[1,4′-bipiperidin]-1′-yl)ethan-1-one] | 1000 to 50000 nM | < 100 nM | < 100 nM |
| CNC(=O)CN1CCC(c2ccc3[nH]c(-c4cc(F)c5nccn5c4)c(CC(F)F)c3c2)CC1 [Example 411, 2-(4-(3-(2,2-difluoroethyl)-2-(8-fluoroimidazo[1,2-a]pyridin-6-yl)-1H-indol-5-yl)piperidin-1-yl)-N-methylacetamide] | 1000 to 50000 nM | < 100 nM | 100 to 1000 nM |
| CCc1c(-c2ccnc3[nH]ncc23)[nH]c2ccc(C3CCN(CC4(N)CC4)CC3)cc12 [Example 657, 1-((4-(3-ethyl-2-(1H-pyrazolo[3,4-b]pyridin-4-yl)-1H-indol-5-yl)piperidin-1-yl)methyl)cyclopropan-1-amine] | 100 to 1000 nM | 100 to 1000 nM | < 100 nM |
| CNCCN1CCC(c2ccc3[nH]c(-c4cccc5cccnc45)c(C)c3c2)CC1 [Example 662, N-methyl-2-(4-(3-methyl-2-(quinolin-8-yl)-1H-indol-5-yl)piperidin-1-yl)ethan-1-amine] | 1000 to 50000 nM | 1000 to 50000 nM | > 3130 nM |
| CC(C)c1c(-c2ccc(C#N)c3ncccc23)[nH]c2ccc(C3CCNCC3)cc12 [Example 109, 5-(3-isopropyl-5-(piperidin-4-yl)-1H-indol-2-yl)quinoline-8-carbonitrile] | 100 to 1000 nM | < 100 nM | < 100 nM |

Source: patent US11739098B2 (BRISTOL-MYERS SQUIBB COMPANY, priority 2017, dated 2023)
